Test results taken from patent US11390621B2, “Chiral indole compounds and their use” (ARIAGEN, INC., priority 2019, dated 2022).
pEC50: −log10 of the molar value. Where “and” joins values, the source holds several entries; their conditions need not be identical. Equal values may be shown once.

What was measured:
AhR = target: T1, AhR (Homo sapiens, UniProt P35869); test: EROD assay (7-ethoxy-resorufin-O-deethylase; CYP1A1 activity) in human HepG2 cells; format: cell-based; settings: for EC90: HepG2, human HepG2 cells; for pEC50: human HepG2 cells
T1 construct: host or cells: human HepG2 cells
T1 sequence (P35869 11-848): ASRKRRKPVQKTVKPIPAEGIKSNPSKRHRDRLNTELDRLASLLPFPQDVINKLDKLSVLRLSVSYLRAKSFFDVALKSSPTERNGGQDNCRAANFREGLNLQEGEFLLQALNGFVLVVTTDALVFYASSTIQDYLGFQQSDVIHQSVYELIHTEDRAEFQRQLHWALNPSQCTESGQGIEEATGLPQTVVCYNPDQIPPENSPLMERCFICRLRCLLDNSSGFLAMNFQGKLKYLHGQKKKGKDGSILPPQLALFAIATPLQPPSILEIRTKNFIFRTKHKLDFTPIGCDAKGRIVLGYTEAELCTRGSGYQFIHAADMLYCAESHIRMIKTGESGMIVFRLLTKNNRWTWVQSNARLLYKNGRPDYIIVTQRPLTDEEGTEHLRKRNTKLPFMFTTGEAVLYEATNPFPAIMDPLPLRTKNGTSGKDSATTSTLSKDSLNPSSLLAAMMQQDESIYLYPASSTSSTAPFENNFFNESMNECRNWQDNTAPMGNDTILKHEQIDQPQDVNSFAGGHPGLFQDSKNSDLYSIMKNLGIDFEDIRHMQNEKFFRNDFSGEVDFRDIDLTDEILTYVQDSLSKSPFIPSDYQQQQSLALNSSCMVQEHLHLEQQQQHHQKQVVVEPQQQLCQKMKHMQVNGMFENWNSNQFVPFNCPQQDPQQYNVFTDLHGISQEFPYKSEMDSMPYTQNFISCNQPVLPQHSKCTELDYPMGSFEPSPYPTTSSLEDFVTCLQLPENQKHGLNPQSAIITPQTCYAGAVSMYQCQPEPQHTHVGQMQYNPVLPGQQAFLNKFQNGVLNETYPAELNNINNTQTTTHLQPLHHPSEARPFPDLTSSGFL
How it was run: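 HepG2 cells (5,000/well) were treated with compounds for 20 h at 37° C. Medium was then replaced with 7-ethoxyresorufin for 30 min at 37° C, and the reaction was stopped with methanol. CYP1A1 activity was read as fluorescence (ex 530/em 590 nm), giving EC50 and maximal signal.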

[1] = In vivo pharmacokinetic studies in rats; design: species or system SD rats; settings: for Tmax: read-out: Tmax
How it was run: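 Mice and rats (N=3/group) dosed IV at 2 mg/kg in DMSO or PO at 10, 30 or 40 mg/kg in PEG400/Tween 80 50/50; PEG400/Kolliphor HS15/oleic acid 45/45/10 used for one repeat-dose rat study. Repeat dosing in rats was PO 10 mg/kg QD for 5 days. Plasma sampled pre-dose to 24 h post-dose, measured by HPLC.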

[2] = In vivo pharmacokinetic studies in mice; design: species or system Balb/C mice; settings: mice
[3] = SD, rat, plasma, iv, 2 mg/kg, rats, single 2 mg/kg IV dose, Mean of 3 animals
[4] = SD, rat, plasma, iv, 2 mg/kg, rats, single 2 mg/kg IV dose, individual animal
[5] = Sprague-Dawley (SD), rat, plasma, iv, 2 mg/kg, rats, single 2 mg/kg IV dose, Mean of 3 animals
[6] = Sprague-Dawley (SD), rat, plasma, po, 10 mg/kg, rats, single 10 mg/kg PO dose, Mean of 3 animals
[7] = Sprague-Dawley (SD), rat, plasma, po, 10 mg/kg, rats, single 10 mg/kg PO dose, individual animal
[8] = rats, single 2 mg/kg IV dose, individual animal, 2 mg/kg
[9] = rats, single 10 mg/kg PO dose, individual animal, 10 mg/kg
[10] = Balb/C, mouse, plasma, single 40 mg/kg oral dose
[11] = Balb/C, mouse, plasma, single 40 mg/kg oral dose, from mean profile
[12] = single 40 mg/kg oral dose, Mean
[13] = single 40 mg/kg oral dose, individual mouse (M1-M3), 40 mg/kg

CC[C@H](O)c1csc(C(=O)c2c[nH]c3cc(F)ccc23)n1 [ARI-164, (S)-(6-Fluoro-1H-indol-3-yl)(4-(1-hydroxypropyl)thiazol-2-yl)methanone] showed an EC90 (AhR; Plate 1) of 134 nM, an EC90 (AhR; Plate 2) of 138 nM and a pEC50 (AhR; Plate 1) of 6.98. The pEC50 (AhR; Plate 2) was 6.98, the AUC(0-inf) [1, 3] was 21500 ng·h/mL and the clearance [1, 3] was 1.55 mL/min/kg. It also gave an AUC(0-t) ([1]; SD, rat, plasma, iv, 2 mg/kg, rats, single 2 mg/kg IV dose, Mean of 3 animals, read-out: AUClast) of 21400 ng·h/mL, an AUC(0-inf) [1, 4] of 20500 ng·h/mL and a clearance [1, 4] of 1.63 mL/min/kg. For the same compound, the half-life [1, 4] was 3.91 h, the AUC(0-t) ([1]; SD, rat, plasma, iv, 2 mg/kg, rats, single 2 mg/kg IV dose, individual animal, read-out: AUClast) was 20300 ng·h/mL and the Cmax ([1]; SD, rat, plasma, iv, 2 mg/kg, rats, single 2 mg/kg IV dose, individual animal, read-out: Cmax) was 42200 ng/mL. The Tmax [1, 4] was 0.083 h, the MRT inf [1, 5] was 1.69 h and the MRT last [1, 5] was 1.63 h. It also gave a half-life [1, 5] of 2.85 h, a Cmax ([1]; Sprague-Dawley (SD), rat, plasma, iv, 2 mg/kg, rats, single 2 mg/kg IV dose, Mean of 3 animals, read-out: Cmax) of 40700 ng/mL and a Tmax [1, 5] of 0.083 h. For the same compound, the Vd ([1]; Sprague-Dawley (SD), rat, plasma, iv, 2 mg/kg, rats, single 2 mg/kg IV dose, Mean of 3 animals, read-out: Vss) was 0.155 L/kg, the AUC(0-inf) [1, 6] was 2090 ng·h/mL and the MRT inf [1, 6] was 2.87 h. For the same compound, the MRT last [1, 6] was 2.85 h, the half-life [1, 6] was 1.37 h and the AUC(0-t) ([1]; Sprague-Dawley (SD), rat, plasma, po, 10 mg/kg, rats, single 10 mg/kg PO dose, Mean of 3 animals, read-out: AUClast) was 2090 ng·h/mL. For the same compound, the Cmax ([1]; Sprague-Dawley (SD), rat, plasma, po, 10 mg/kg, rats, single 10 mg/kg PO dose, Mean of 3 animals, read-out: Cmax) was 511 ng/mL, the Tmax [1, 6] was 1.67 h and the AUC(0-inf) [1, 7] was 2110 ng·h/mL. The MRT inf [1, 7] was 2.65 h, the MRT last [1, 7] was 2.64 h and the AUC(0-t) ([1]; Sprague-Dawley (SD), rat, plasma, po, 10 mg/kg, rats, single 10 mg/kg PO dose, individual animal, read-out: AUClast) was 2110 ng·h/mL. For the same compound, the Cmax ([1]; Sprague-Dawley (SD), rat, plasma, po, 10 mg/kg, rats, single 10 mg/kg PO dose, individual animal, read-out: Cmax) was 532 ng/mL, the Tmax [1, 7] was 2 h and the bioavailability ([1]; Sprague-Dawley (SD), rat, plasma, rats, 10 mg/kg PO vs 2 mg/kg IV, read-out: F (Bioavailability)) was 1.94%. The Cmax/Dose ([1]; male rats, repeat 30 mg/kg oral dose, Day 1, Mean) was 16.6 kg·ng/mL/mg, the “Tlast^a” value ([1]; male rats, repeat 30 mg/kg oral dose, Day 1, Mean row) was 8 h and the Cmax/Dose ([1]; male rats, repeat 30 mg/kg oral dose, Day 7, Mean) was 0.245 kg·ng/mL/mg. For the same compound, the “Tlast^a” value ([1]; male rats, repeat 30 mg/kg oral dose, Day 7, range printed in SD row) was “(1-4) hr”, the Cmax at 1 day ([1]; male, Sprague-Dawley (SD), rat, plasma, po, 30 mg/kg, male rats, repeat 30 mg/kg oral dose, Day 1, Mean) was 499 ng/mL and the Tmax at 1 day ([1]; male, Sprague-Dawley (SD), rat, plasma, po, 30 mg/kg, male rats, repeat 30 mg/kg oral dose, Day 1, Mean row, read-out: Tmax^a) was 1 h. The AUC(0-t) ([1]; male, Sprague-Dawley (SD), rat, plasma, po, 30 mg/kg, male rats, repeat 30 mg/kg oral dose, Day 1, Mean, read-out: AUCTlast) was 1430 ng·h/mL, the Cmax at 7 day ([1]; male, Sprague-Dawley (SD), rat, plasma, po, 30 mg/kg, male rats, repeat 30 mg/kg oral dose, Day 7, Mean) was 2.93 ng/mL and the Tmax at 7 day ([1]; male, Sprague-Dawley (SD), rat, plasma, po, 30 mg/kg, male rats, repeat 30 mg/kg oral dose, Day 7, Mean row) was 1 h. The “decrease in exposure after repeat oral dosing” value ([1]; rats, 30 mg/kg QD) was “greater than 90%”, the AUCinf [1, 8] was 23000 ng·h/mL and 21000 ng·h/mL and the AUClast [1, 8] was 23000 ng·h/mL and 21000 ng·h/mL. The Cl [1, 8] was 1.45 mL/min/kg and 1.58 mL/min/kg, the Cmax [1, 8] was 35400 ng/mL and 44500 ng/mL and the MRTinf [1, 8] was 1.53 h and 2.5 h and 1.04 h. For the same compound, the MRTlast [1, 8] was 1.38 h and 2.49 h and 1.03 h, the T1/2 [1, 8] was 2.39 h and 2.24 h and the Vss [1, 8] was 0.149 L/kg and 0.218 L/kg and 0.0986 L/kg. The AUCinf [1, 9] was 2660 ng·h/mL and 1500 ng·h/mL, the AUClast [1, 9] was 2650 ng·h/mL and 1500 ng·h/mL and the Cmax [1, 9] was 646 ng/mL and 354 ng/mL. For the same compound, the MRTinf [1, 9] was 3.05 h and 2.92 h, the MRTlast [1, 9] was 3.02 h and 2.88 h and the T1/2 [1, 9] was 0.56 h and 0.746 h and 2.82 h. It also gave an AUC [2, 10] of 3010 ng·h/mL, a bioavailability [2, 10] of 15.1% and a Cmax [2, 11] of 1870 ng/mL. The Tmax [2, 11] was 0.5 h, the AUC(0-t) ([2]; Balb/C, mouse, plasma, single 40 mg/kg oral dose, from mean profile, read-out: AUC0-t) was 3010 ng·h/mL and the AUC(0-inf) ([2]; Balb/C, mouse, plasma, single 40 mg/kg oral dose, from mean profile, read-out: AUC0-∞) was 3020 ng·h/mL. For the same compound, the half-life ([2]; Balb/C, mouse, plasma, single 40 mg/kg oral dose, from mean profile, read-out: t1/2 (converted)) was 1.4 h, the half-life ([2]; Balb/C, mouse, plasma, read-out: half-life (converted)) was 1.4 h and the “plasma concentration at 0.083 hr” value [2, 12] was 206.7. The “plasma concentration at 0.25 hr” value [2, 12] was 1623, the “plasma concentration at 0.5 hr” value [2, 12] was 1867 and the “plasma concentration at 1 hr” value [2, 12] was 1193. For the same compound, the “plasma concentration at 2 hr” value [2, 12] was 506, the “plasma concentration at 4 hr” value [2, 12] was 82.8 and the “plasma concentration at 8 hr” value [2, 12] was 7.1. The “plasma concentration at 12 hr” value [2, 12] was 6.5, the “plasma concentration at 24 hr” value ([2]; single 40 mg/kg oral dose, individual mouse (M1-M3)) was “BLQ” and the “plasma concentration at 0.083 hr” value [2, 13] was 330 and 202 and 88. For the same compound, the “plasma concentration at 0.25 hr” value [2, 13] was 1780 and 1740 and 1350, the “plasma concentration at 0.5 hr” value [2, 13] was 1960 and 2020 and 1620 and the “plasma concentration at 1 hr” value [2, 13] was 1050 and 1600 and 930. The “plasma concentration at 2 hr” value [2, 13] was 463 and 572 and 482, the “plasma concentration at 4 hr” value [2, 13] was 101 and 79.3 and 68.2 and the “plasma concentration at 8 hr” value [2, 13] was 7.1 and BLQ (2×). The “plasma concentration at 12 hr” value [2, 13] was 7.5 and BLQ and 5.6.
